Experiments:
Plasmepsin II = Plasmepsin II (Plasmodium falciparum, UniProt P46925); test: Enzyme Inhibition Assay : Plasmepsin-2 (PM-2; Plm II) and Plasmepsin (PM-4; Plm IV) expression and purification was performed following the published protocols (Istvan E S and Goldberg D E, 2005). The final purified protein was activated by diluting the protein to 0.3 mg/mL in activating buffer (0.1 M citrate pH 4.5, 0.1% Tween-20, 50 mM dithiothreitol) and incubated at room temperature for 40 min, then the activated enzyme was diluted in assay buffer (50 mM sodium acetate pH 4.7, 0.01% Tween-20). The enzymatic inhibition reaction was performed in 384 well plates with a total volume of 20 μl. 10 μl of diluted PM-2 or PM-4 enzyme was added to the 384-well plate except blank wells (blank wells add 10 μL of assay buffer) and 20 nL of serials of diluted 1000× compounds were added to the wells with 520 Echo® Liquid Handling System (Labcyte Inc.). 10 μL PM-2 peptide substrate (AnaSpec, Cat#, 62050) with assay buffer was then added to final concentration of 20 μM to start the reaction.
Beta-secretase 1 = Beta-secretase 1 (Homo sapiens, UniProt P56817); test: The enzymatic inhibition activity assays were determined using the fluorescence resonance energy transfer (FRET) assay. The assays were performed in a 384-well plate format. […] The concentration of Cathepsin D was 20 ng/μL, and 1 ng/μL of Cathepsin E was used. CatD and CatE were activated by incubation in assay buffer (0.1 M NaOAc, 0.2 M NaCl, pH 3.5) at room temperature for 30 min. Subsequently, the rhBACE-1 substrate (R&D Systems, catalog# ES004), the Cathepsin D and Cathepsin E substrate (R&D Systems, Catalog # ES001) were added accordingly to final concentration
Beta-secretase 1, sequence (P56817 whole entry): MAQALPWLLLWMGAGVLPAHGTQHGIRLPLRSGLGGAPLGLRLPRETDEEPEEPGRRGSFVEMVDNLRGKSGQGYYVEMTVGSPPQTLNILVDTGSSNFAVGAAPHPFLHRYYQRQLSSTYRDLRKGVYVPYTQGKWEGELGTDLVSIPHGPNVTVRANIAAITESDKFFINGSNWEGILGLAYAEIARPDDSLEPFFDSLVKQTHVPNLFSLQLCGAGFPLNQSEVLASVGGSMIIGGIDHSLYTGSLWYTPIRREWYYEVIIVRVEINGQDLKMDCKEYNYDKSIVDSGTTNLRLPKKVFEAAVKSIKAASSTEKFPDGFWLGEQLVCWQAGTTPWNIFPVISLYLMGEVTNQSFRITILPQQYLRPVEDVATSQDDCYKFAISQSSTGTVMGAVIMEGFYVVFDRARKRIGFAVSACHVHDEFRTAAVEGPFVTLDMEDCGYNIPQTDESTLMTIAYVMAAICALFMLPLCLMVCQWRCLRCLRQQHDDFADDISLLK

Plasmepsin II, sequence (P46925 whole entry): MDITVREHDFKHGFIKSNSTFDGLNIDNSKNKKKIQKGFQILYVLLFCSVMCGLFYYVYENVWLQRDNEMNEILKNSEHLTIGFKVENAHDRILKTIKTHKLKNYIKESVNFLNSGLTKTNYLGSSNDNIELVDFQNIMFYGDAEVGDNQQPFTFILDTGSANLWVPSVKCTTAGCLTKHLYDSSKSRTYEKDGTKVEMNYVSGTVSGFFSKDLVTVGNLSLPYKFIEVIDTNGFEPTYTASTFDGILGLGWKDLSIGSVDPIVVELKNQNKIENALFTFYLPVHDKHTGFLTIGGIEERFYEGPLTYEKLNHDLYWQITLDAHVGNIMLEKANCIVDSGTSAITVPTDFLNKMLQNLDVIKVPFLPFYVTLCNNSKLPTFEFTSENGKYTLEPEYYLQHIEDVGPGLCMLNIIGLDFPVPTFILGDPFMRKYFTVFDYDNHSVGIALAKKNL

Q: For `N=C1NC(c2ccccc2)(c2cccc(Oc3ccccc3)c2)C(=O)N1C1CCCCC1` (stereo not drawn), which IC50 (Plasmepsin II) is on record?
A: The IC50 was 2.2 nM.

Q: With `N=C1NC(c2cccc(-c3cccnc3)c2)(C2CC2)C(=O)N1C1CCCCC1` (stereo not drawn) as the compound, how does the IC50 (Plasmepsin II) read?
A: Its IC50 is 126 nM.

Q: What about the IC50 (Beta-secretase 1) of the same compound?
A: The IC50 was 16800 nM.

Reference: ChEMBL document CHEMBL3886201, “Compositions and methods for the treatment of malaria” (2016)
